Experiment: Organ distribution of ^225Ac complexes following intravenous injection in mice
Type: in vivo, C57BL/6 mice
Method: In Vivo Biodistribution of ^225Ac Complexes of Macropa and DOTA. All experiments were approved by the Institutional Animal Care Committee (IACC) of the University of British Columbia and were performed in accordance with the Canadian Council on Animal Care Guidelines. A total of 9 female C57BL/6 mice (6-8 weeks old, 20-25 g) were used for the biodistribution study of each radiometal complex, n=3 for each time point.
Macropa (100 μL of a 1 mg/mL solution in NH4OAc) was diluted with 387 μL of NH4OAc (1 M, pH 7), and an aliquot (203 μL) of ^225Ac(NO3)3 (˜157 kBq) was then added; the pH of this solution was adjusted to 6.5-7 by the addition of 1 M NaOH (210 μL, trace metal grade). After 5 min at ambient temperature, the reaction solution was analyzed by TLC (0.4 M pH 4 sodium citrate as the eluent), which confirmed >95% radiochemical yield. The reaction was allowed to proceed overnight, and the radiochemical yield was again confirmed to be >95% the following morning. At this time, mice were anesthetized by 2% isoflurane, and approximately 100 μL (10-15 kBq) of the [^225Ac(macropa)]^+ complex were injected into the tail vein of each mouse. After injection, mice were allowed to recover and roam freely in their cages, and were euthanized by CO2 inhalation at 15 min, 1 h, or 5 h (n=3 at each time point) post-injection. Blood was collected by cardiac puncture and placed into an appropriate test tube for scintillation counting. Tissues collected included heart, liver, kidneys, lungs, small intestine, large intestine, brain, bladder, spleen, stomach, pancreas, bone, thyroid, tail, urine, and feces. Tissues were weighed and then counted with a calibrated gamma counter (Packard, Cobra II model 5002) using three energy windows: 60-120 keV (window A), 180-260 keV (window B), and 400-480 keV (window C). Counting was performed both immediately after sacrifice and after 7 days; counts were decay corrected from the time of injection and then converted to the percentage of injected dose (% ID) per gram of tissue (% ID/g). […]
The biodistribution studies of [^225Ac(DOTA)]^− and ^225Ac(NO3)3 were carried out as described above for [^225Ac(macropa)]^+, with the following modifications. [^225Ac(DOTA)^− was prepared by adding ^225Ac(NO3)3 (338 μL, 1.1 MBq) to a solution of DOTA (100 μg, 20 mg/mL in H2O) in NH4OAc (467 μL, 0.15 M, pH 7). The pH of the solution was adjusted to 7 using NH4OAc (150 μL, 1 M, pH 7) and the solution was heated at 85° C. for 45 min. RCY >99% was confirmed by TLC as described above. [^225Ac(DOTA)]^− was diluted with saline to a final concentration of 0.05 MBq/100 μL, and 100 μL were injected into each mouse. ^225Ac(NO3)3 (˜58 μL, 0.4 MBq) was diluted and injected in the same manner as [^225Ac(DOTA)]^−. One mouse that was to be euthanized at the 5 h time point in the [^225Ac(DOTA)]^− study died shortly after injection. In the same manner, one mouse that was to be euthanized at the 1 h time point in the ^225Ac(NO3)3 study died.
The in vivo stability [^225Ac(macropa)]^+ was examined by comparing its biodistribution to those of ^225Ac(NO3)3 and [^225Ac(DOTA)]^−. C57BL/6 mice were injected via tail vein with 10-50 kBq of each radiometal complex and were sacrificed after 15 min, 1 h, or 5 h. The amount of ^225Ac retained in each organ was quantified by gamma counting and reported as the percent of injected dose per gram of tissue (% ID/g). The results of these studies are compiled in Tables 1-3. Inadequate stability of an ^225Ac complex leading to the loss of radioisotope in vivo is manifested by the accumulation of ^225Ac in the liver, spleen, and bone of mice.^[11,12,32] […] The biodistribution profile of [^225Ac(macropa)]^+ (FIG. 3B) differs markedly from that of ^225Ac(NO3)3. […] Its biodistribution profile was similar to that of [^225Ac(DOTA)]^− (FIG. 3C), which has been previously shown to retain ^225Ac^3+ in vivo.^[7]

[1] = 15 min post i.v. injection, energy window A (60-120 keV)
[2] = 15 min post i.v. injection, energy window B (180-260 keV)
[3] = 15 min post i.v. injection, energy window C (400-480 keV)
[4] = 1 h post i.v. injection, energy window A (60-120 keV)

## O=C([O-])CN1CCN(CC(=O)[O-])CCN(CC(=O)[O-])CCN(CC(=O)[O-])CC1.[225Ac+3] [[^225Ac(DOTA)]^−]
[1]
  Organ distribution: bladder: 48.2703 % ID/g
  Organ distribution: blood: 5.2881 % ID/g
  Organ distribution: bone (femur + joint): 2.6298 % ID/g
  Organ distribution: brain: 0.2655 % ID/g
  Organ distribution: feces: 6.2730 % ID/g
  Organ distribution: heart: 2.3335 % ID/g
  Organ distribution: kidneys: 27.6566 % ID/g
  Organ distribution: large intestines: 2.3348 % ID/g
  Organ distribution: liver: 2.2520 % ID/g
  Organ distribution: lungs: 5.7556 % ID/g
  Organ distribution: pancreas: 1.5090 % ID/g
  Organ distribution: small intestines: 2.6370 % ID/g
  Organ distribution: spleen: 2.5905 % ID/g
  Organ distribution: stomach: 2.7440 % ID/g
  Organ distribution: tail: 8.8606 % ID/g
  Organ distribution: thyroids: −5.7725 % ID/g
  Organ distribution: urine: 1467.9186 % ID/g
[2]
  Organ distribution: bladder: 54.4696 % ID/g
  Organ distribution: blood: 5.6357 % ID/g
  Organ distribution: bone (femur + joint): 3.0357 % ID/g
  Organ distribution: brain: 0.2735 % ID/g
  Organ distribution: feces: 1.0222 % ID/g
  Organ distribution: heart: 2.7276 % ID/g
  Organ distribution: kidneys: 28.0858 % ID/g
  Organ distribution: large intestines: 2.5365 % ID/g
  Organ distribution: liver: 2.1817 % ID/g
  Organ distribution: lungs: 6.0147 % ID/g
  Organ distribution: pancreas: 1.4929 % ID/g
  Organ distribution: small intestines: 2.5009 % ID/g
  Organ distribution: spleen: 2.9076 % ID/g
  Organ distribution: stomach: 2.7311 % ID/g
  Organ distribution: tail: 9.4746 % ID/g
  Organ distribution: thyroids: 1.6601 % ID/g
  Organ distribution: urine: 1635.4394 % ID/g
[3]
  Organ distribution: bladder: 76.0987 % ID/g
  Organ distribution: blood: 7.2941 % ID/g
  Organ distribution: bone (femur + joint): 4.4224 % ID/g
  Organ distribution: brain: 0.1588 % ID/g
  Organ distribution: feces: 1.5693 % ID/g
  Organ distribution: heart: 2.5579 % ID/g
  Organ distribution: kidneys: 40.4489 % ID/g
  Organ distribution: large intestines: 3.8419 % ID/g
  Organ distribution: liver: 2.9046 % ID/g
  Organ distribution: lungs: 7.3872 % ID/g
  Organ distribution: pancreas: 1.0290 % ID/g
  Organ distribution: small intestines: 3.8916 % ID/g
  Organ distribution: spleen: 1.5598 % ID/g
  Organ distribution: stomach: 3.2425 % ID/g
  Organ distribution: tail: 13.4731 % ID/g
  Organ distribution: thyroids: −109.5394 % ID/g
  Organ distribution: urine: 2691.0615 % ID/g
[4]
  Organ distribution: bladder: 4.7351 % ID/g
  Organ distribution: blood: 0.1144 % ID/g
  Organ distribution: bone (femur + joint): 0.4487 % ID/g
  Organ distribution: brain: 0.0224 % ID/g
  Organ distribution: feces: 0.2035 % ID/g
  Organ distribution: heart: 0.1012 % ID/g
  Organ distribution: kidneys: 1.4020 % ID/g
  Organ distribution: large intestines: 0.1229 % ID/g
  Organ distribution: liver: 0.2715 % ID/g
  Organ distribution: lungs: 0.1555 % ID/g
  Organ distribution: pancreas: 0.0743 % ID/g
  Organ distribution: small intestines: 1.7207 % ID/g
  Organ distribution: spleen: 0.0938 % ID/g
  Organ distribution: stomach: 0.1367 % ID/g
  Organ distribution: tail: 0.8091 % ID/g
  Organ distribution: thyroids: 2.3564 % ID/g
  Organ distribution: urine: 158.6102 % ID/g
